In brackets after ≈: the same amount, converted by molar mass. Where two headings read alike, the source gives them in different places.
What was measured:
Escherichia coli DC 2 = experiment: MIC by agar dilution, in vitro activity test; format: cell-based; conditions: DC2, 37° C., 18 to 20 hours, read-out: Minimal Inhibitory Concentration (MIC)
Description: (§1) These MIC values were determined by agar dilution method: that is, two-fold dilutions of each of the test compounds were made and dispersed in a Mueller-Hinton Broth medium. Standard test strain which had the 10^6 CFU per ml was inoculated on the medium, and was incubated at 37° C. for 18 to 20 hours.

[1] = tested on: Pseudomonas aeruginosa 1592E; experiment: MIC by agar dilution, in vitro activity test; format: cell-based; conditions: 37° C., 18 to 20 hours, read-out: Minimal Inhibitory Concentration (MIC)
Description: as §1

[2] = tested on: Pseudomonas aeruginosa 9027; experiment: MIC by agar dilution, in vitro activity test; format: cell-based; conditions: 37° C., 18 to 20 hours, read-out: Minimal Inhibitory Concentration (MIC)
Description: as §1

[3] = tested on: Streptococcus pyogenes 71A; experiment: MIC by agar dilution, in vitro activity test; format: cell-based; conditions: 37° C., 18 to 20 hours, read-out: Minimal Inhibitory Concentration (MIC)
Description: as §1

Escherichia coli 1507E = experiment: MIC by agar dilution, in vitro activity test; format: cell-based; conditions: Escherichia coli 1507E; agar dilution, 37° C., 18 to 20 hours; read-out: Minimal Inhibitory Concentration (MIC)
Description: as §1

[4] = tested on: Staphylococcus aureus SG511; experiment: MIC by agar dilution, in vitro activity test; format: cell-based; conditions: 37° C., 18 to 20 hours, read-out: Minimal Inhibitory Concentration (MIC)
Description: as §1

[5] = tested on: Staphylococcus aureus 285; experiment: MIC by agar dilution, in vitro activity test; format: cell-based; conditions: 37° C., 18 to 20 hours, read-out: Minimal Inhibitory Concentration (MIC)
Description: as §1

[6] = tested on: Streptococcus pyogenes 77A; experiment: MIC by agar dilution, in vitro activity test; format: cell-based; conditions: 37° C., 18 to 20 hours, read-out: Minimal Inhibitory Concentration (MIC)
Description: as §1

Enterobacter cloace P99 = experiment: MIC by agar dilution, in vitro activity test; format: cell-based; conditions: P99, 20 h, read-out: Minimal Inhibitory Concentration (MIC)
Description: as §1

[7] = tested on: Pseudomonas aeruginosa 9071; experiment: MIC by agar dilution, in vitro activity test; format: cell-based; conditions: 37° C., 18 to 20 hours, read-out: Minimal Inhibitory Concentration (MIC)
Description: as §1

[8] = tested on: Enterobacter cloace 1321E; experiment: MIC by agar dilution, in vitro activity test; format: cell-based; conditions: 37° C., 18 to 20 hours, read-out: Minimal Inhibitory Concentration (MIC)
Description: as §1

[9] = tested on: Klebsiella aerogenes 1082E; experiment: MIC by agar dilution, in vitro activity test; format: cell-based; conditions: 37° C., 18 to 20 hours, read-out: Minimal Inhibitory Concentration (MIC)
Description: as §1

Escherichia coli 078 = experiment: MIC by agar dilution, in vitro activity test; format: cell-based; conditions: 37° C., 18 to 20 hours, read-out: Minimal Inhibitory Concentration (MIC)
Description: as §1

Salmonella typhimurium = experiment: MIC by agar dilution, in vitro activity test; format: cell-based; conditions: Salmonella enterica, 37° C., 18 to 20 hours, read-out: Minimal Inhibitory Concentration (MIC)
Description: as §1

[10] = tested on: Klebsiella aerogenes 1522E; experiment: MIC by agar dilution, in vitro activity test; format: cell-based; conditions: Klebsiella aerogenes 1522E; agar dilution, 37° C., 18 to 20 hours; read-out: Minimal Inhibitory Concentration (MIC)
Description: as §1

[11] = tested on: Staphylococcus aureus 503; experiment: MIC by agar dilution, in vitro activity test; format: cell-based; conditions: 37° C., 18 to 20 hours, read-out: Minimal Inhibitory Concentration (MIC)
Description: as §1

[12] = tested on: Pseudomonas aeruginosa 1771M; experiment: MIC by agar dilution, in vitro activity test; format: cell-based; conditions: 20 h, read-out: Minimal Inhibitory Concentration (MIC)
Description: as §1

Escherichia coli TEM = experiment: MIC by agar dilution, in vitro activity test; format: cell-based; conditions: 20 h, read-out: Minimal Inhibitory Concentration (MIC)
Description: as §1

Escherichia coli DC 0 = experiment: MIC by agar dilution, in vitro activity test; format: cell-based; conditions: DC0, 37° C., 18 to 20 hours, read-out: Minimal Inhibitory Concentration (MIC)
Description: as §1

[13] = tested on: Streptococcus faecium MD 8b; experiment: MIC by agar dilution, in vitro activity test; format: cell-based; conditions: Enterococcus faecium, MD8B, read-out: Minimal Inhibitory Concentration (MIC)
Description: as §1

[14] = tested on: Pseudomonas aeruginosa 1771; experiment: MIC by agar dilution, in vitro activity test; format: cell-based; conditions: 37° C., 18 to 20 hours, read-out: Minimal Inhibitory Concentration (MIC)
Description: These MIC values were determined by agar dilution method: that is, two-fold dilutions of each of the test compounds were made and dispersed in a Mueller-Hinton Broth medium.

[15] = tested on: Staphylococcus aureus, Escherichia coli and Pseudomonas aeruginosa; experiment: MIC by agar dilution, comparison in words; format: cell-based; conditions: against Staphylococcus aureus, vs Cefotaxime
Description: as §1

Acute toxicity study = format: in vivo; conditions: mouse, in vivo
Description: In order to illustrate usefulness of the compounds of the present invention, acute toxicity test of the compounds synthesized in the above Examples were carried out. Each dose of the compounds dissolved in saline and buffer solution (PH=7.0) was administered by intravenous or subcutaneous injection. Mortalities of the animals was recorded seven days latter.
.asterisk-pseud. Mouse: Male ICR strain, 4 weeks

[16] = iv, i.v, male ICR mouse, 4 weeks, mortality at seven days, read-out: LD50 i.v
[17] = iv, intravenous routes, read-out: acute toxicity in intravenous routes
[18] = sc, s.c, male ICR mouse, 4 weeks, mortality at seven days, read-out: LD50 s.c

Structure (SMILES) | MIC (Escherichia coli DC 2) [µg/mL] | MIC [1] [µg/mL] | MIC [2] [µg/mL] | MIC [3] [µg/mL] | MIC (Escherichia coli 1507E) [µg/mL] | MIC [4] [µg/mL] | MIC [5] [µg/mL] | MIC [6] [µg/mL] | MIC (Enterobacter cloace P99) [µg/mL] | MIC [7] [µg/mL] | MIC [8] [µg/mL] | MIC [9] [µg/mL] | MIC (Escherichia coli 078) [µg/mL] | MIC (Salmonella typhimurium) [µg/mL] | MIC [10] [µg/mL] | MIC [11] [µg/mL] | MIC [12] [µg/mL] | MIC (Escherichia coli TEM) [µg/mL] | MIC (Escherichia coli DC 0) [µg/mL] | MIC ([13]; 20 h) [µg/mL] | other results
CO/N=C(\C(=O)N[C@@H]1C(=O)N2C(C(=O)[O-])=C(C[n+]3cccc4c3CCC4)CS[C@H]12)c1csc(N)n1 [CPR, Cefpirome, reference compound] | 0.1 (≈ 0.194 µM) | 3.1 (≈ 6.02 µM) | 6.3 (≈ 12.2 µM) | 0.012 (≈ 0.0233 µM) | 0.025 (≈ 0.0486 µM) | 0.8 (≈ 1.55 µM) | 0.4 (≈ 0.777 µM) | 0.012 (≈ 0.0233 µM) | 3.1 (≈ 6.02 µM) | 6.3 (≈ 12.2 µM) | 0.025 (≈ 0.0486 µM) | 6.3 (≈ 12.2 µM) | 0.025 (≈ 0.0486 µM) | 0.1 (≈ 0.194 µM) | 0.1 (≈ 0.194 µM) | 0.8 (≈ 1.55 µM) | 0.8 (≈ 1.55 µM) | 0.05 (≈ 0.0972 µM) | 0.012 (≈ 0.0233 µM) | 100 (≈ 194 µM) | MIC [14]: 3.1 µg/mL (≈ 6.02 µM)
CO/N=C(\C(=O)N[C@@H]1C(=O)N2C(C(=O)O)=C(COC(C)=O)CS[C@H]12)c1csc(N)n1 [CTX, Cefotaxime, reference compound] | 0.05 (≈ 0.11 µM) | 25 (≈ 54.9 µM) | 25 (≈ 54.9 µM) | 0.012 (≈ 0.0263 µM) | 0.025 (≈ 0.0549 µM) | 1.6 (≈ 3.51 µM) | 1.6 (≈ 3.51 µM) | 0.012 (≈ 0.0263 µM) | > 100 | 25 (≈ 54.9 µM) | 0.05 (≈ 0.11 µM) | 6.3 (≈ 13.8 µM) | 0.025 (≈ 0.0549 µM) | 0.1 (≈ 0.22 µM) | 0.1 (≈ 0.22 µM) | 3.1 (≈ 6.81 µM) | 0.4 (≈ 0.878 µM) | 0.05 (≈ 0.11 µM) | 0.012 (≈ 0.0263 µM) | > 100 | –
CO/N=C(\C(=O)N[C@@H]1C(=O)N2C(C(=O)[O-])=C(/C=C/C[N+](C)(C)Cc3scnc3C)CS[C@H]12)c1csc(N)n1 [Example 1, 7β-[(Z)-2-(2-aminothiazol-4-yl)-2-methoxyiminoacetamido]-3-[(E)-3-[(4-methylthiazol-5-yl)-methyldimethylammonio]-1-propen-1-yl]3-cephem-4-carboxylate] | 0.05 (≈ 0.0865 µM) | 3.1 (≈ 5.37 µM) | 12.5 (≈ 21.6 µM) | – | 0.025 (≈ 0.0433 µM) | 0.4 (≈ 0.692 µM) | 0.4 (≈ 0.692 µM) | 0.006 (≈ 0.0104 µM) | 0.4 (≈ 0.692 µM) | – | 0.012 (≈ 0.0208 µM) | 6.3 (≈ 10.9 µM) | < 0.006 | 0.1 (≈ 0.173 µM) | 0.05 (≈ 0.0865 µM) | 0.8 (≈ 1.38 µM) | 0.4 (≈ 0.692 µM) | 0.05 (≈ 0.0865 µM) | 0.025 (≈ 0.0433 µM) | – | MICs compared with Cefotaxime [15]: superior to that of Cefotaxime; LD50 at 168 h (Acute toxicity study; [16]): > 3000 mg/kg; LD50 at 168 h (Acute toxicity study; [17]): > 2000 mg/kg; LD50 at 168 h (Acute toxicity study; [18]): > 4000 mg/kg; LD50 at 168 h (Acute toxicity study; sc, subcutaneous routes, read-out: acute toxicity in subcutaneous routes): > 3000 mg/kg; MIC ([13]; Streptococcus faecium MD 8b, agar dilution, 37° C., 18 to 20 hours): 50 µg/mL (≈ 86.5 µM); MIC [14]: 6.3 µg/mL (≈ 10.9 µM)
CO/N=C(\C(=O)N[C@@H]1C(=O)N2C(C(=O)[O-])=C(/C=C/C[N+](C)(C)Cc3nc[nH]c3C)CS[C@H]12)c1csc(N)n1 [Example 2, 7β-[(Z)-2-(2-aminothiazol-4-yl)-2-methoxyiminoacetamido]-3-[(E)-3-[(5-methylimidazol-4-yl)-methyldimethylammonio]-1-propen-1-yl]3-cephem-4-carboxylate] | – | – | – | – | – | – | – | – | – | – | – | – | – | – | – | – | – | – | – | – | LD50 at 168 h (Acute toxicity study; [16]): > 2000 mg/kg; LD50 at 168 h (Acute toxicity study; [17]): > 2000 mg/kg; LD50 at 168 h (Acute toxicity study; [18]): > 3000 mg/kg

— US6063778A, “Cephalosporin derivatives and processes for the preparation thereof” (Il-Dong Pharm. Co., Ltd., priority 1995, dated 2000)
